From ChEMBL document CHEMBL1151899, “Oleanane-type isomeric triterpenoids from Barringtonia racemosa” (J Nat Prod, 2009)

Assays:
[1] = tested on: HeLa; assay: Cytotoxicity against human HeLa cells by MTT assay; type: functional, cell-based
[2] = Cytotoxicity against mouse P388D1 cells by MTT assay; type: functional, cell-based

## CC1(C)C[C@H]2C3=CC[C@@H]4[C@@]5(C)CC[C@H](O)C(C)(C)[C@@H]5CC[C@@]4(C)[C@]3(C)C[C@@H](O)[C@@]2(CO)[C@@H](O)[C@@H]1O [BARRINGTOGENOL C]
[1]
  IC50: > 50 µM
[2]
  IC50: > 50 µM

## CC1(C)CC[C@]2(C(=O)O)CC[C@]3(C)C(=CC[C@@H]4[C@@]5(C)C[C@@H](O)[C@H](O)[C@@](C)(C(=O)O)[C@@H]5CC[C@]43C)[C@@H]2[C@@H]1O [BARTOGENIC ACID]
[1]
  IC50: > 50 µM
[2]
  IC50: > 50 µM

## CCC(C)C(=O)O[C@H]1[C@H](OC(C)=O)C(C)(C)C[C@H]2C3=CC[C@@H]4[C@@]5(C)CC[C@H](O)C(C)(C)[C@@H]5CC[C@@]4(C)[C@]3(C)[C@@H](O)[C@@H](O)[C@]21CO (stereo partly drawn) [ISORACEMOSOL A]
[1]
  IC50: > 50 µM
[2]
  IC50: > 50 µM

## CCC(C)C(=O)OC[C@@]12[C@H](O)[C@H](O)[C@]3(C)C(=CC[C@@H]4[C@@]5(C)CC[C@H](O)C(C)(C)[C@@H]5CC[C@]43C)[C@@H]1CC(C)(C)[C@@H](O)[C@@H]2OC(C)=O (stereo partly drawn) [RACEMOSOL A]
[1]
  IC50: > 50 µM
[2]
  IC50: > 50 µM

## CC[C@H](/C=C/[C@@H](C)[C@H]1CC[C@H]2[C@@H]3CC=C4C[C@@H](O)CC[C@]4(C)[C@H]3CC[C@]12C)C(C)C [STIGMASTEROL]
[1]
  IC50: > 50 µM
[2]
  IC50: > 50 µM
